Experimental data reported in ChEMBL document CHEMBL1135023, “A lipophilic thioflavin-T derivative for positron emission tomography (PET) imaging of amyloid in brain” (Bioorg Med Chem Lett, 2002).

Key:
[1] = Octanol-water partition at pH 7.4; type: physicochemical
Mus musculus [2] = assay: Compound was tested in vivo for mouse brain uptake after 2 min; Mouse brain uptake per g; type: functional, organism-based
Mus musculus [3] = assay: Compound was tested in vivo for mouse brain uptake after 30 min; Mouse brain uptake per g; type: functional, organism-based
[4] = In vitro binding using synthetic aggregated Abeta(1-40) fibrils
[5] = Ratio of 2-30 min mouse brain uptakes per g was determined; type: functional

logD [1]	Compound	ID/g (Mus musculus [2]) [%]	ID/g (Mus musculus [3]) [%]	Ki [4] [µM]	Ratio [5]
2.7	CNc1ccc(-c2nc3ccccc3s2)cc1	12.9	1.7	–	–
0.57	Cc1ccc2c(c1)sc(-c1ccc(N(C)C)cc1)[n+]2C	–	–	–	–

Compound	logD [1]	ID/g (Mus musculus [2]) [%]	ID/g (Mus musculus [3]) [%]	Ki [4] [µM]	Ratio [5]
CNc1ccc(-c2nc3ccc(C)cc3s2)cc1	3.4	7.6	2.8	0.01	2.7
